Assay results published in patent US20030176508A1, “Ferulic acid ethyl-guaiacol or vinyl-guaiacol as preservative combination in cosmetic compositions” (priority 2000, published 2003).

Experiments:
Assay type in all cases: cell-based
[1] = tested on: Saccharomyces cerevisiae #4105; experiment: Challenge test of hand lotion with A. niger and S. cerevisiae (S. cerevisiae rating); conditions: 1000 ppm of each compound, S. cerevisiae (second figure of cell); for Bacterial Growth Rating 1 wk: 1 week; for Bacterial Growth Rating 2 wk: 2 weeks; for Bacterial Growth Rating 3 wk: 3 weeks; for Bacterial Growth Rating 2 day: 2 days
Description: (§1) The samples were tested by the challenge test described below. In this challenge test, samples were stored at room temperatures, inoculated at zero days and streaked at 0 days, 1 day, 2 days, 1 week, 2 weeks and 3 weeks. […] Twenty-five grams of sample are weighed out in one-ounce glass jars. […] Biocide is dissolved into solution before use and different concentrations are prepared by adding the appropriate amount of the biocide solution to the samples. […] A negative control is included using a sample without any biocide. […] Before inoculation, samples are streaked on MYA (malt yeast agar) plates with sterile cotton swabs. The plates are incubated at 30° C. for 48 hours and then read using a bacterial colony counter and rated for microbial growth according to the Growth Rating Chart. […] 5. The inoculum is prepared by adding 9.9 mL sterile 0.85% saline solution to a pure culture slant grown on MYA. A cotton-tipped swab is used to gently rub the surface of the slant to free the cells. […] The yeast and fungus used are: [table] […] Samples are inoculated with 0.05 mL (for 25 g samples) of the An suspension and 0.05 mL of the Sc suspension. 7. Immediately after inoculation, samples are streaked with sterile cotton swabs on MYA plates. The plates are then incubated at 30° C. for 48 hours. The samples are incubated at room temperature. 8. Samples are streaked again at 1 day, 2 days, 1 week, 2 weeks and 3 weeks. 9. All plates are incubated 48 hours at 30° C. then read and rated according to the Growth Rating Chart. Samples are kept at room temperature.

Bacteria Pool [2] = experiment: Challenge test of hand lotion with bacteria pool; parameters: key to Bacterial Growth Rating 1 day / Bacterial Growth Rating 1 wk / Bacterial Growth Rating 3 wk: 1: 0 (No Growth); 2: 1-4; 3: 5-10; 4: 11-25; 26-50; 6: 51-100; 7: 101-200; 8: 201-300; 9: (TNTC) too numerous to count; 10: (TNTC) solid m; conditions: 1000 ppm of each compound; for Bacterial Growth Rating 1 wk: streaked 1 week after inoculation; for Bacterial Growth Rating 2 wk: streaked 2 weeks after inoculation; for Bacterial Growth Rating 3 wk: streaked 3 weeks after inoculation; for Bacterial Growth Rating 1 day: streaked 1 day after inoculation; for Bacterial Growth Rating 2 day: streaked 2 days after inoculation
Description: (§2) The samples were tested by the challenge test described below. In this challenge test, samples were stored at room temperatures, inoculated at zero days and streaked at 0 days, 1 day, 2 days, 1 week, 2 weeks and 3 weeks. […] Twenty-five grams of sample are weighed out in one-ounce glass jars. […] Biocide was dissolved into solution before use and different concentrations are prepared by adding the appropriate amount of the biocide solution to the samples. […] A negative control is included using a sample without any biocide. 4. The bacteria pool inoculum is made fresh on the day of inoculation by using equal volumes of the 24 hour cultures of the ATCC bacteria grown individually in nutrient broth at 30° C. […] 5. Before inoculation, samples are streaked on TSA (tryptic soy agar) plates with sterile cotton swabs. The plates are incubated at 30° C. for 48 hours and then read using a bacterial colony counter and rated for microbial growth according to the Growth Rating Chart. […] Samples are inoculated with 0.05 mL (for 25 g samples) of the […]. […] Immediately after inoculation, samples are streaked with sterile cotton swabs on TSA plates. The plates are then incubated at 30° C. for 48 hours. The samples are incubated at room temperature. 8. Samples are streaked again at 1 day, 2 days, 1 week, 2 weeks and 3 weeks. […] All plates are incubated 48 hours at 30° C. then read and rated according to the Growth Rating Chart. […] Samples are kept at room temperature.

[3] = tested on: Aspergillus niger ATCC #16404; experiment: Challenge test of hand lotion with A. niger and S. cerevisiae (A. niger rating); conditions: 1000 ppm of each compound, A. niger (first figure of cell); for Bacterial Growth Rating 1 wk: 1 week; for Bacterial Growth Rating 2 wk: 2 weeks; for Bacterial Growth Rating 3 wk: 3 weeks; for Bacterial Growth Rating 2 day: 2 days
Description: as §1

Bacteria Pool [4] = experiment: Challenge test of shampoo with bacteria pool; parameters: key: 1: 0 (No Growth); 2: 1-4; 3: 5-10; 4: 11-25; 26-50; 6: 51-100; 7: 101-200; 8: 201-300; 9: (TNTC) too numerous to count; 10: (TNTC) solid m; conditions: 1000 ppm of each compound; for Bacterial Growth Rating 1 wk: streaked 1 week after inoculation; for Bacterial Growth Rating 2 wk: streaked 2 weeks after inoculation; for Bacterial Growth Rating 3 wk: streaked 3 weeks after inoculation; for Bacterial Growth Rating 1 day: streaked 1 day after inoculation; for Bacterial Growth Rating 2 day: streaked 2 days after inoculation
Description: as §2

| SMILES | Bacterial Growth Rating 1 wk [1] | Bacterial Growth Rating 2 wk [1] | Bacterial Growth Rating 3 wk [1] | Bacterial Growth Rating 1 day [1] | Bacterial Growth Rating 2 day [1] | Bacterial Growth Rating 1 wk (Bacteria Pool [2]) | Bacterial Growth Rating 2 wk (Bacteria Pool [2]) | Bacterial Growth Rating 3 wk (Bacteria Pool [2]) | Bacterial Growth Rating 1 day (Bacteria Pool [2]) | Bacterial Growth Rating 2 day (Bacteria Pool [2]) | Bacterial Growth Rating 1 wk [3] | Bacterial Growth Rating 2 wk [3] | Bacterial Growth Rating 3 wk [3] | Bacterial Growth Rating 1 day [3] | Bacterial Growth Rating 2 day [3] | Bacterial Growth Rating 1 wk (Bacteria Pool [4]) | Bacterial Growth Rating 2 wk (Bacteria Pool [4]) | Bacterial Growth Rating 3 wk (Bacteria Pool [4]) | Bacterial Growth Rating 1 day (Bacteria Pool [4]) | Bacterial Growth Rating 2 day (Bacteria Pool [4]) |
| --- | --- | --- | --- | --- | --- | --- | --- | --- | --- | --- | --- | --- | --- | --- | --- | --- | --- | --- | --- | --- |
| C=Cc1ccc(O)c(OC)c1 [vinylguaiacol, 4-hydroxy-3-methoxystyrene] | 2 (1-4) | 1 (0 (No Growth)) | 1 (0 (No Growth)) | 2 (1-4) | 3 (5-10) | 4 (11-25) | 3 (5-10) | 1 (0 (No Growth)) | 4 (11-25) | 3 (5-10) | 1 (0 (No Growth)) | 1 (0 (No Growth)) | 1 (0 (No Growth)) | 3 (5-10) | 1 (0 (No Growth)) | 8 (201-300) | 9 | 9 | 9 | 9 |
| COc1cc(C=CC(=O)O)ccc1O [ferulic acid, 4-hydroxy-3-methoxycinnamic acid] | 3/3 (5-10) | 3 (5-10) | 4 (11-25) | 6 (51-100) | 6 (51-100) | 9 | 6 (51-100) | 9 | 7 (101-200) | 6 (51-100) | 3/3 (5-10) | 4 (11-25) | 3 (5-10) | 4 (11-25) | 4 (11-25) | 9 | 9 | 9 | 9 | 9 |
| CCc1ccc(O)c(OC)c1 [ethylguaiacol, 4-ethyl-2-methoxyphenol] | 4 (11-25) | 2/2 (1-4) | 3/3 (5-10) | 4/4 (11-25) | 4 (11-25) | 5 (26-50) | 4 (11-25) | 1 (0 (No Growth)) | 9 | 6 (51-100) | 3 (5-10) | 2/2 (1-4) | 3/3 (5-10) | 4/4 (11-25) | 3 (5-10) | 9 | 9 | 9 | 9 | 9 |
